Experimental data taken from patent US20060276414A1, “Use of compositions comprising an estrogenic component for the treatment and prevention of musculoskeletal pain” (priority 2003, published 2006).

Legend:
[1] = test system: early breast cancer in postmenopausal women; conditions: 9366 patients; cited from earlier work
[2] = test system: DMBA-induced mammary tumours; test: 7,12-dimethyl-benz(a)anthracene (DMBA)-induced tumour model in rats; assay type: in vivo, Sprague-Dawley rats
Procedure: In order to assess the effect of the present estrogenic substances on tumours, estetrol was tested in the 7,12-dimethyl-benz(a)anthracene (DMBA)-induced tumour model in rats. This model, originally developed by Huggins et al.,1961 (Nature,19, 204-207), has been widely used and is a generally accepted model with predictive value for anti-tumour agents in humans. The growth of the DMBA-induced tumours is dependent on endogenously produced estradiol or exogenously administered estrogens and prolactin (Sylvester et al., 1982, Cancer Research, 42, 4943-4947).
Eighty-four female Sprague-Dawley rats (Harlan, The Netherlands) were group housed, maintained in a 12-hr light/dark environment, and fed a Soya Free Diet (SDS England) and water ad libitum. Animals were weighed on a weekly basis. One week prior to induction of mammary carcinoma, 12 animals (aged 43 days) were surgically castrated via removal of the ovaries. At the age of 50 days, all animals were administered a single oral dose of 16 mg DMBA to induce tumour development. Animals were subsequently allocated to one of seven groups (n=12), receiving placebo or treatment as follows:. • Group 1 animals received placebo oral treatment with 3.0 ml/kg/day vehicle (20% wt/vol solution of hydroxypropyl-beta-cyclodextrin in water); • Group 2 surgically castrated animals received placebo treatment with 3.0 ml/kg/day vehicle; • Group 3 animals received the anti-estrogen tamoxifen given orally at a single daily dose of 3 mg/kg; • Group 4 animals received ethinylestradiol (EE) orally at a single daily dose of 0.025 mg/kg; • Group S animals received ethinylestradiol (EE) orally at a single daily dose of 0.125 mg/kg; • Group 6 animals received estetrol (E4) orally at a single daily dose of 0.5 mg/kg; and • Group 7 animals received estetrol (E4) orally at a single daily dose of 2.5 mg/kg.
During the treatment period of 8 weeks, the emergence of palpable tumours and number of tumours were determined weekly. At 8 weeks, at necropsy, final measurements were taken. The number of tumours at necropsy are depicted in FIG. 1.

[3] = test system: DMBA-induced mammary tumours; conditions: literature (Hollingsworth et al., 1998); cited from earlier work
[4] = test system: bone resorption, hot flushing and vaginal cornification; test: agonistic models of in vivo estrogenicity (previous studies); conditions: data from previous studies
Procedure: The doses of EE and E4 were based on data from previous studies, showing equipotency of 0.025 mg/kg/day EE and 0.5 mg/kg/day E4 in agonistic models of preventing bone resorption, prevention of hot flushing and vaginal comification.

[5] = test system: musculoskeletal pain in postmenopausal breast cancer patients; test: Example 2: placebo-controlled cross-over study, postmenopausal breast cancer patients (stage I or II) on estrogen suppressant therapy; assay type: in vivo, human patients; conditions: for average musculoskeletal pain sensation value during treatment weeks, vs placebo: 4 mg/day oral estetrol, 6 weeks
Source text: 20 postmenopausal patients are recruited that have breast cancer in clinical staging I or II, are adequately being treated surgically, chemotherapeutically and/or radiotherapeutically, show estrogen receptor positive tumour histology and do no have contraindications for steroid therapy, are on treatment with either an anti-estrogen or an aromatase inhibitor for at least three months and suffer from musculoskeletal pain complaints (defined as skeletal pain, pain in the legs, arms or back). Furthermore, during the screening phase other diagnoses, such as rheumatoid arthritis and/or other skeletal diseases or joint diseases, are excluded.
(§1) The patients participate in a clinical study with a duration of 15 weeks and are randomized as follows:
(§2) Patients continue with the anti-estrogen treatment that they have been receiving previously during the entire period of the study and receive additional daily oral treatment with 4 mg estetrol or a placebo for six weeks. 5 patients start with 4 mg/day oral estetrol treatment and 5 patients with placebo treatment. After a wash-out period of 3 weeks, during which anti-estrogen treatment continues and no additional estetrol or placebo treatment is given, study treatment is reinitiated. Placebo-receiving patients are subsequently treated with 4 mg/day oral estetrol and estetrol-receiving patients with placebo for 6 weeks after which the study is terminated.
as §2, with “aromatase inhibitor” for “anti-estrogen”
The subjects visit the study center once weekly, during which the patients are closely monitored by their study physician. During all visits, thorough physical examinations are performed, blood samples are retrieved and a questionnaire, specifically addressing musculoskeletal pain sensation on a graded scale and climacteric complaints, is completed. Primary endpoints in the study are improvement of the musculoskeletal pain and reduction of climacteric complaints, whereas secondary endpoints are clinical tumour progression and changes of tumour markers.

[6] = test system: musculoskeletal pain in premenopausal breast cancer patients; test: Example 3: placebo-controlled cross-over study, premenopausal breast cancer patients on estrogen suppressant therapy; assay type: in vivo, human patients; conditions: premenopausal patients with ovarian ablation, estetrol plus estrogen suppressant
[7] = test system: tumour gene expression profile and musculoskeletal pain in postmenopausal breast cancer patients; test: Example 4: placebo-controlled cross-over study with fine needle aspiration, postmenopausal breast cancer patients (at least stage III); assay type: in vivo, human patients; conditions: for average musculoskeletal pain sensation value during treatment weeks, vs placebo: 6 weeks
Source text: 20 postmenopausal patients are recruited that have breast cancer in at least clinical staging […], have a palpable macroscopic tumour mass, show estrogen receptor positive tumour histology, have already been treated with either an anti-estrogen or an aromatase inhibitor for at least three months, do no have contraindications for steroid therapy and suffer from musculoskeletal pain complaints (defined as skeletal pain, pain in the legs, arms or back). Furthermore, during the screening phase other diagnoses, such as rheumatoid arthritis and/or other skeletal diseases or joint diseases, are excluded.
as §1
as §2, with “treatment” for “treatment that”
as §2, with “aromatase inhibitor” for “anti-estrogen”, “treatment” for “treatment that”
The patients visit the study center once weekly, during which the patients are closely monitored by their study physician. During all visits, thorough physical examinations are performed, blood samples are retrieved and a questionnaire, specifically addressing musculoskeletal pain sensation on a graded scale, is completed. Furthermore, three fine needle aspirations (FNA) from the macroscopic tumour are obtained at baseline, during the wash-out and at the last visit after study week 15, respectively. Additionally at the same time points and for all locations with macroscopic palpable tumour activity, tumour sizes are scored. Tumour gene expression profiles are determined by using a FNA-cDNA microarray as described by Sotiriou et al. (Breast Cancer Research 2002,4:R3). Primary endpoints in the study are changes of the gene expression profile, improvement of the musculoskeletal pain and reduction of climacteric complaints, whereas secondary endpoints are clinical tumour progression and changes of tumour markers.

[8] = 4 mg/day oral estetrol added to estrogen suppressant therapy

CC(C)(C#N)c1cc(Cn2cncn2)cc(C(C)(C)C#N)c1 [anastrozole]
disease-free survival and incidence of contralateral breast cancer, compared with tamoxifen [1]: significantly superior

CC/C(=C(\c1ccccc1)c1ccc(OCCN(C)C)cc1)c1ccccc1 [tamoxifen, reference compound]
development of mammary tumours (number of tumours at necropsy) ([2]; tamoxifen 3 mg/kg/day orally, 8 weeks, DMBA-treated female rats): inhibiting the development of mammary tumours | anti-tumour treatment in the DMBA model [3]: effective anti-tumour treatments

C[C@]12CC[C@@H]3c4ccc(O)cc4CC[C@H]3[C@@H]1[C@@H](O)[C@@H](O)[C@@H]2O [estetrol, 1,3,5 (10)-estratrien-3,15α,16α,17β-tetrol]
preventing growth of DMBA-induced tumours, compared with tamoxifen ([2]; E4 2.5 mg/kg/day orally vs tamoxifen 3 mg/kg/day orally): as effective as tamoxifen | mammary tumour development (number of tumours at necropsy) ([2]; E4 2.5 mg/kg/day orally, 8 weeks, DMBA-treated female rats): markedly suppressed mammary tumour development | equipotency with EE in preventing bone resorption, prevention of hot flushing and vaginal cornification ([4]; 0.5 mg/kg/day E4 vs 0.025 mg/kg/day EE): equipotency | equipotency with EE in in vivo estrogenicity (preventing bone resorption, hot flushing, vaginal cornification) ([4]; 2.5 mg/kg/day E4 vs 0.125 mg/kg/day EE): equipotency | climacteric complaints (questionnaires) [5, 8]: overall reduction | average musculoskeletal pain sensation value during treatment weeks, vs placebo ([5]; concomitant anti-estrogen therapy): significantly lower | average musculoskeletal pain sensation value during treatment weeks, vs placebo ([5]; concomitant aromatase inhibitor therapy): significantly lower | clinical tumour progression and tumour markers ([5]; during treatment with estetrol, vs baseline and recurrency data for stages I and II): do not show significant adverse changes | clinical outcome (musculoskeletal pain) compared with postmenopausal patients [6]: similar-to the clinical outcome reported for postmenopausal breast cancer patients | climacteric complaints (questionnaires) [7, 8]: overall reduction | molecular profile on concomitant administration with an anti-estrogen or an aromatase inhibitor ([7]; 4 mg/day oral estetrol plus anti-estrogen or aromatase inhibitor): synergistically produces a more beneficial molecular profile | average musculoskeletal pain sensation value during treatment weeks, vs placebo ([7]; 4 mg/day oral estetrol, concomitant anti-estrogen therapy): significantly lower | average musculoskeletal pain sensation value during treatment weeks, vs placebo ([7]; 4 mg/day oral estetrol, concomitant aromatase inhibitor therapy): significantly lower | changes in the gene-expression profile involved in regulation and deregulation of breast tissue proliferation ([7]; 4 mg/day oral estetrol, FNA-cDNA microarray): favourable association | tumour progression / sizes of macroscopic tumours ([7]; additional estetrol treatment, vs baseline and progression data for stages III and more): tumours progress more slowly or sizes of macroscopically tumours decline
